Experimental data published in patent publication US20200297671A1, “METHODS OF AVOIDING EXCIPIENT-BASED ADVERSE EFFECTS AND OF EXPLOITING BIOLOGICAL PROPERTIES OF GRAS COMPOUNDS” (MASSACHUSETTS INSTITUTE OF TECHNOLOGY, priority 2019, published 2020).

Assays:
[1] = system: patients; settings: cited from earlier work
[2] = system: UGT; assay: UGT tissue assay (liver lysate); assay type: biochemical, porcine; settings: pig liver lysate, 500 μM
Description: Compound mixtures were prepared at 500 μM. Freshly extracted porcine liver was homogenized using a tissue homogenizer. The sample was separated using centrifugation and the supernatant was used as a test sample. Two independent experiments with two different liver extracts were performed as described for the microsomes.

[3] = system: mice; settings: cited from earlier work
[4] = biological target: T1, Human UGT2B7 (Homo sapiens, UniProt P16662); assay: UGT2B7 inhibition assay (Corning Supersomes, Biovision UGT activity kit); assay type: biochemical
T1 construct: purchased Corning
T1 sequence (P16662 24-529): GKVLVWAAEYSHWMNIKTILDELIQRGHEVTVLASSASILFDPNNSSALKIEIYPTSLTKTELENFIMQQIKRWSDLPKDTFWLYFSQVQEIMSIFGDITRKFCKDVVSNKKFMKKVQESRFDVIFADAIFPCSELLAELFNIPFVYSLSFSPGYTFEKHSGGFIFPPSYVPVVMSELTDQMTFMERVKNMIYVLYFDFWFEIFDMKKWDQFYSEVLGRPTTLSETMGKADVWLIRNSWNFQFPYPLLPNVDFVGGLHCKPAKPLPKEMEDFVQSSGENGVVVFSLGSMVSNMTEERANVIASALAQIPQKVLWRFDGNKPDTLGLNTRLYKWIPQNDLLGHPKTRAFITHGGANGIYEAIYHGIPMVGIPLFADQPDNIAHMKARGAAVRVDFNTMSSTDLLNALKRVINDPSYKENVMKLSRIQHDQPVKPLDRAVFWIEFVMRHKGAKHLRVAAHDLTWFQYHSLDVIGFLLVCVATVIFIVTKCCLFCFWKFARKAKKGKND
Description: UGT2B7 inhibition was measured using Corning® Supersomes™ Human UGT2B7. The inhibition of UGT2B7 was measured using the commercially-available Biovision UGT activity screening kit as previously described. Briefly, 0.1 mg/mL microsomes were mixed with Alamethicin for pore-formation and a proprietary UGT ligand that loses fluorescence after glucuronidation (Biovision). Plates were incubated for 5 minutes at RT and protected from light before the enzymatic reaction was initiated through the addition of UDPGA. […] Diclofenac (1 mM in PBS 1% DMSO) served as a positive inhibitor control.

[5] = system: P-gp; assay: P-gp in vivo experiment (warfarin plasma concentration); design: species or system BALB/c mice; settings: mice
Description: A suspension of vitamin A palmitate in 10% DMSO PBS or 10% DMSO PBS buffer control were administered orally to five female BALB/c mice at a dose of 500 mg/kg 15 minutes prior to treatment. Mice were then treated orally with warfarin 20 mg/kg. Blood was sampled after 30 minutes of oral warfarin administration. Warfarin plasma concentrations were determined using LCMS.

## O=C([O-])C1=NN(c2ccc(S(=O)(=O)[O-])cc2)C(=O)C1N=Nc1ccc(S(=O)(=O)[O-])cc1.[Na+].[Na+].[Na+] (centres unmarked) [tartrazine]
[1]; tartrazine-containing versus tartrazine-free medications, all patients
  patients with adverse symptoms associated with tartrazine content: about 4%

## CC(C)C1=CC2=CC[C@@H]3[C@](C)(CCC[C@@]3(C)C(=O)O)[C@H]2CC1 [abietic acid]
[2]
  inhibition of UGT activity ex vivo: successfully inhibited UGT activity
[3]
  toxicity in mice: harmless in mice
[4]
  inhibition of UGT2B7 activity in microsomes (FIG. 18): can inhibit UGT2B7 activity
[4]; functional in vitro assay, microsomes, 30 minutes
  IC50: 2200 ± 300 nM

## OC[C@H]1O[C@@H](O[C@H]2[C@H](O)[C@@H](O)C(O)O[C@@H]2CO)[C@H](O)[C@@H](O)[C@H]1O (some centres unmarked) [lactose]
[1]; severe cases of lactose intolerance
  amount affecting individuals: less than 200 mg

## CCCCCCCCCCCCCCCC(=O)OC/C=C(C)/C=C/C=C(C)/C=C/C1=C(C)CCCC1(C)C [vitamin A palmitate]
[5]
  systemic warfarin after oral delivery (FIG. 23): induces an increase of systemic warfarin
[5]; 500 mg/kg oral 15 minutes before warfarin 20 mg/kg oral, blood after 30 minutes
  increase of oral absorption of warfarin: 31%
